Experiments:
Type in all cases: in vivo
[1] = test system: larvae of the banded cucumber beetle (Diabrotica balteata); experiment: Diabrotica balteata spray test; conditions: 168 h, 100 g/ha (=32 μg/well), after 7 days, read-out: efficacy (seedling growth)
Method in brief: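 Efficacy is seedling survival after 7 days, where 0% means no seedlings grew and 100% means growth equal to untreated, uninfested controls. Wheat seedlings, germinated on agar for 1 day, were sprayed with the aqueous emulsifier dilution (acetone/DMF solvent) and then exposed to 10–20 banded cucumber beetle larvae.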

[2] = test system: green peach aphid (Myzus persicae); experiment: Myzus persicae spray test (MYZUPE); conditions: 120 h, 100 g/ha, after 5 days
Method in brief: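 Percent aphid kill, with 0% meaning none killed, was read 5 days after spraying. The preparation (acetone–DMF solvent, water with 1000 ppm emulsifier) was applied to Brassica pekinensis leaf disks carrying mixed-instar green peach aphids.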

[3] = test system: fall armyworm larvae (Spodoptera frugiperda); experiment: whole plant or invertebrate; conditions: 168 h
Method in brief: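 Percent kill of Spodoptera frugiperda caterpillars, read 7 days after infestation of dried, spray-treated Zea mays leaf pieces. Spray preparation: compound in acetone plus dimethylformamide, diluted with emulsifier-containing water.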

[4] = test system: adult mosquitoes Aedes aegypti strain MONHEIM; experiment: Aedes aegypti test (AEDSAE surface treatment & contact assay); conditions: 24 hours after contact, read-out: efficacy (mortality); for mortality at 4 mg/m2: surface concentration 4 mg/m^2, 30 min exposure; for mortality at 20 mg/m2: surface concentration 20 mg/m^2, 30 min exposure
Method in brief: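 Compound in acetone containing 2000 ppm rapeseed oil methyl ester applied to a glazed tile and dried; adult mosquitoes exposed on the treated surface for 30 minutes. Percent mortality scored 24 hours after contact (100% = all dead, 0% = none dead).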

[5] = test system: adult mosquitoes Culex quinquefasciatus strain P00; experiment: Culex quinquefasciatus test (CULXFA surface treatment & contact assay); conditions: 24 hours after contact, read-out: efficacy (mortality); for mortality at 20 mg/m2: surface concentration 20 mg/m^2, 30 min exposure; for mortality at 4 mg/m2: surface concentration 4 mg/m^2, 30 min exposure
Protocol: Culex quinquefasciatus Test (CULXFA Surface Treatment & Contact Assay)
(§1) Solvent: Aceton+2000 ppm rapeseed oil methyl ester (RME)
(§2) This solution is pipetted onto a glazed tile and after evaporation of the acetone, adult mosquitoes of the species Culex quinquefasciatus strain P00 are placed onto the dried surface. The exposure time is 30 minutes. Mortality in percent (%) is determined 24 hours after contact of the insects to the treated surface. 100% mortality means that all tested insects are dead, whereas 0% means that no insect died.

[6] = test system: adult flies Musca domestica strain WHO-N; experiment: Musca domestica test (MUSCDO surface treatment & contact assay); conditions: 24 hours after contact, read-out: efficacy (mortality); for mortality at 20 mg/m2: surface concentration 20 mg/m^2, 30 min exposure; for mortality at 4 mg/m2: surface concentration 4 mg/m^2, 30 min exposure
Protocol: Musca domestica Test (MUSCDO Surface Treatment & Contact Assay)
as §1
as §2, with “flies” for “mosquitoes”, “Musca domestica” for “Culex quinquefasciatus”, “WHO-N” for “P00”

[7] = test system: cattle tick larvae (Rhipicephalus microplus), strain Parkhurst, resistant against synthetic pyrethroids; experiment: Rhipicephalus (Boophilus) microplus in-vitro contact test, larval cattle tick; conditions: 5 μg/cm^2 (=500 g/ha), after 48 hours
Method in brief: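 Larvae exposed by contact to a dried acetone film on glass; a 900 ppm solution yields 5 μg/cm^2. Scoring after 48 h at 27° C. counts dead plus moribund larvae as efficacy.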

[8] = test system: adult cat fleas (Ctenocephalides felis); experiment: Ctenocephalides felis in-vitro contact test, adult cat flea; conditions: 5 μg/cm^2 (=500 g/ha), after 48 hours
Protocol: Ctenocephalides felis—In-Vitro Contact Tests Adult Cat Flea
(§3) 9 mg compound is solved in 1 mL acetone and diluted with acetone to the desired concentration. 250 μL of the test solution is filled in 25 mL glass test tubes and homogeneously distributed on the inner walls by rotation and tilting on a shaking device (2 h at 30 rpm). With a compound concentration of 900 ppm, an inner surface of 44.7 cm^2 and a homogeneous distribution, a dose of 5 μg/cm^2 is achieved.
(§4) After the solvent has evaporated, each test tube is filled with 5-10 adult cat fleas (Ctenocephalides felis), closed with a perforated lid and incubated in a lying position at room temperature and relative humidity. After 48 hours efficacy is determined. The fleas are patted on the ground of the tubes and are incubated on a heating plate at 45-50° C. for at most 5 minutes. Immotile or uncoordinated moving fleas, which are not able to escape the heat by climbing upwards, are marked as dead or moribund.
An efficacy of 100% means all fleas are dead or moribund; 0% means no fleas are dead or moribund.

[9] = test system: adult brown dog ticks (Rhipicephalus sanguineus); experiment: Rhipicephalus sanguineus in-vitro contact test, adult brown dog ticks; conditions: 48 h, read-out: efficacy (ticks dead or moribund)
Protocol: Rhipicephalus sanguineus—In-Vitro Contact Tests with Adult Brown Dog Ticks
as §3
as §4, with “brown dog ticks (Rhipicephalus sanguineus),” for “cat fleas (Ctenocephalides felis),”, “ticks” for “fleas”, “ticks,” for “fleas,”
An efficacy of 100% means all ticks are dead or moribund; 0% means no ticks are dead or moribund.

[10] = test system: larvae of the southern green stink bug (Nezara viridula); experiment: whole plant or invertebrate; conditions: 96 h
Method in brief: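 Percent mortality of southern green stink bug larvae was recorded at day 4, with 100% meaning all dead. The larvae were placed on barley sprayed with the test solution. That solution was prepared from acetone/dimethylformamide concentrate diluted in emulsifier-containing water (1000 ppm).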

[11] = test system: brown planthopper (Nilaparvata lugens); experiment: Nilaparvata lugens spray test; conditions: 96 h
Method in brief: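 Rice plants (Oryza sativa) sprayed with compound formulated in acetone/DMF with alkylarylpolyglycol ether emulsifier (1000 ppm in diluting water), then infested with planthoppers. Mortality (%) scored after 4 days; 100% = all insects killed, 0% = none killed.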

[12] = test system: adult animals Blattella germanica strain PAULINIA; experiment: Blattella germanica test (BLTTGE surface treatment & contact assay); conditions: 24 hours after contact, read-out: efficacy (mortality); for mortality at 4 mg/m2: surface concentration 4 mg/m^2, 30 min exposure; for mortality at 20 mg/m2: surface concentration 20 mg/m^2, 30 min exposure
Protocol: Blattella germanica Test (BLTTGE Surface Treatment & Contact Assay)
as §1
In order to produce a sufficient, active ingredient containing solution it is necessary to solve the test compound in the solvent-mix (acetone at 2 mg/ml/RME 2000 ppm). This solution is pipetted onto a glazed tile and after evaporation of the acetone, adult animals of the species Blattella germanica strain PAULINIA are placed onto the dried surface. The exposure time is 30 minutes.
Mortality in percent (%) is determined 24 hours after contact of the insects to the treated surface. 100% mortality means that all tested insects are dead, whereas 0% means that no insect died.

| SMILES | pest or weed control at 32 µg/disc, 100 g/ha [1] [%] | mortality at 100 g/ha [2] [%] | mortality at 100 g/ha [3] [%] | mortality at 4 mg/m2 [4] [%] | mortality at 20 mg/m2 [4] [%] | mortality at 20 mg/m2 [5] [%] | mortality at 20 mg/m2 [6] [%] | efficacy (larvae dead or moribund) [7] [%] | efficacy (fleas dead or moribund) [8] [%] | pest or weed control at 5 µg/cm2, 500 g/ha [9] [%] | mortality at 100 g/ha [10] [%] | mortality at 500 g/ha [10] [%] | mortality at 500 g/ha [11] [%] | mortality at 4 mg/m2 [5] [%] | mortality at 4 mg/m2 [6] [%] | mortality at 4 mg/m2 [12] [%] | mortality at 20 mg/m2 [12] [%] |
| --- | --- | --- | --- | --- | --- | --- | --- | --- | --- | --- | --- | --- | --- | --- | --- | --- | --- |
| C[C@H](NC(=O)c1cc(OC(F)(F)F)cc(S(=O)(=O)C(F)F)c1)c1ncnn1-c1cc(C#N)ncn1 [I-20] | 100 | 100 | 100 | 80 to 100 | 80 to 100 | 80 to 100 | 80 to 100 |  |  |  |  |  |  |  |  |  |  |
| C[C@H](NC(=O)c1cc(Br)cc(OC(F)F)c1)c1ncnn1-c1cc(C(N)=O)ncn1 [I-51] | 100 | 90 | 100 | 80 to 100 | 80 to 100 | 80 to 100 | 80 to 100 | 100 | 100 | 100 | 100 | 100 | 100 | 80 to 100 | 80 to 100 | 80 to 100 | 80 to 100 |
| C[C@H](NC(=O)c1cc(OC(F)(F)F)cc(C2(C#N)CC2)c1)c1nc(C2CC2)nn1-c1cc(C(N)=O)ncn1 [I-33] | 100 |  | 100 | 80 to 100 | 80 to 100 | 80 to 100 | 80 to 100 | 100 | 100 |  |  |  | 100 | 80 to 100 | 80 to 100 |  |  |
| C[C@H](NC(=O)c1cc(Br)cc(OC(F)(F)F)c1)c1ncnn1-c1cc(C(N)=O)ncn1 [I-21] | 100 | 90 | 100 | 80 to 100 | 80 to 100 |  | 80 to 100 | 100 | 100 | 100 | 100 | 100 |  | 80 to 100 | 80 to 100 | 80 to 100 | 80 to 100 |
| C[C@H](NC(=O)c1cc(OC(F)(F)F)cc(OC(F)(F)F)c1)c1ncnn1-c1cc(C(N)=O)ncn1 [I-102] | 100 | 100 | 100 | 80 to 100 | 80 to 100 | 80 to 100 | 80 to 100 | 100 | 100 | 80 |  | 100 | 90 | 80 to 100 | 80 to 100 | 80 to 100 | 80 to 100 |
| CNC(=O)c1cc(-n2ncnc2[C@H](C)NC(=O)c2cc(Br)cc(OC(F)(F)F)c2)ncn1 [I-74] | 80 | 90 | 100 | 80 to 100 | 80 to 100 | 80 to 100 | 80 to 100 | 100 | 100 | 100 |  | 100 | 100 | 80 to 100 | 80 to 100 | 80 to 100 | 80 to 100 |
| CC(NC(=O)c1cc(OC(F)(F)F)cc(C2CC2)c1)c1ncnn1-c1cc(C#N)ncn1 (stereo not drawn) [I-8, N-{1-[1-(6-cyanopyrimidin-4-yl)-1H-1,2,4-triazol-5-yl]ethyl}-3-cyclopropyl-5-(trifluoromethoxy)benzamide] | 100 | 90 | 100 | 80 to 100 | 80 to 100 |  | 80 to 100 | 100 |  |  |  |  | 100 |  |  |  |  |
| C[C@H](NC(=O)c1cc(OC(F)F)cc(OC(F)F)c1)c1ncnn1-c1cc(C(N)=O)ncn1 [I-93] | 100 | 100 | 100 | 80 to 100 | 80 to 100 | 80 to 100 | 80 to 100 |  |  |  |  | 100 | 100 | 80 to 100 | 80 to 100 | 80 to 100 | 80 to 100 |
| CNC(=O)c1cc(-n2ncnc2[C@H](C)NC(=O)c2cc(Cl)cc(OC(F)(F)F)c2)ncn1 [I-73] | 100 | 70 | 100 | 80 to 100 | 80 to 100 | 80 to 100 | 80 to 100 | 100 | 100 | 100 |  | 100 | 100 | 80 to 100 | 80 to 100 | 80 to 100 | 80 to 100 |
| C[C@H](NC(=O)c1cc(OC(F)(F)F)cc(OC(F)(F)F)c1)c1nc(C2CC2)nn1-c1cc(C(N)=O)ncn1 [I-36] | 100 |  | 100 |  | 80 to 100 |  | 80 to 100 | 100 |  | 80 |  |  |  |  | 80 to 100 |  |  |
| CNC(=O)c1cc(-n2ncnc2[C@H](C)NC(=O)c2cc(OC(F)(F)F)cc(S(=O)(=O)C(F)(F)F)c2)ncn1 [I-90] | 100 | 100 | 100 | 80 to 100 | 80 to 100 | 80 to 100 | 80 to 100 |  |  |  |  | 100 | 90 | 80 to 100 | 80 to 100 |  | 80 to 100 |
